This data set concerns Caco-2 monolayer. It is filed as in vitro ADME, human. The protocol:
To test that the monolayer well resembled the epithelial lining of the GI tract and formed tight junctions, Lucifer Yellow (LY) was used as a standard. It has been reported that the integrity of a Caco-2 monolayer is good once the Papp of LY across the monolayer is <5×10^−7 cm/s. The measured Papp of LY across all Caco-2 monolayers (see Methods for more details) used in this study is depicted in FIG. 8B, with all values of Papp<3×10^−7 cm/s.
Caco-2 Cell Culture: Caco-2 cells (ATCC) were cultured in RPMI 1640 supplemented with 20% fetal bovine serum and 10k/10k penicillin/streptomycin (Lonza). 75 μL of Caco-2 cells were plated on the apical side of a 96-well Transwell dish at a seeding density of 2×10^5 cells/mL. 75 μL of media was used on the apical side and 235 μL on the basolateral side. The media was changed every other day for a week, followed by changes every day until the Papp of a Lucifer Yellow assay was <5×10^−7 cm/s. Cells were incubated at 37° C. with 5% CO2 and 90% humidity.
Lucifer Yellow Monolayer Integrity Assay: Lucifer Yellow (LY) was dissolved at a concentration of 0.1 mg/mL in Hank's balanced salt solution (HBSS). 75 μL of LY solution was added to the apical side and 235 μL HBSS was added to the basolateral side. […] The concentration of LY on the basolateral side was determined using fluorescence 488/520 ex/em with a Spectramax M2. […]

Consider Lucifer Yellow [LY], for which the “Papp of Lucifer Yellow across Caco-2 monolayers” value is < 3e-07 cm/s.

For the origin of these results see patent publication US20240181091A1, “ORAL DELIVERY OF SILICA/ALUMINOSILICATE NANOPARTICLES” (Cornell University, priority 2021, published 2024).
